Experimental data reported in US8362004B2, “Piperazine analogs as broad-spectrum influenza antivirals” (priority 2010, dated 2013).
Where two headings read alike, the source gives them in different places.

Experiments:
[1] = test system: influenza A/Brisbane/10/2007; experiment: Antiviral assay in MDCK cells, viral neuraminidase (MUNANA) readout, A/H3N2/Brisbane; format: cell-based; settings: read-out: A/H3N2/Brisbane Activity
A/H5N1/Duck_MN = experiment: microbe, parasite or virus in culture; format: cell-based, influenza A
A/H5N1/Gull_PA = experiment: microbe, parasite or virus in culture; format: cell-based, influenza A
[2] = test system: Influenza A/Solomon Islands/3/06; experiment: Antiviral assay in MDCK cells, viral neuraminidase (MUNANA) readout, A/H1N1/Solomon Islands; format: cell-based; settings: read-out: A/H1N1/Solomon Islands Activity
influenza A/WSN/33 = experiment: Antiviral assay in MDCK cells, viral neuraminidase (MUNANA) readout, A/H1N1/WSN; format: cell-based; settings: read-out: A/H1N1/WSN Activity
A/H5N1/Duck_PA = experiment: microbe, parasite or virus in culture; format: cell-based, influenza A
[3] = MDCK cells, MOI 0.001, 48 hrs post infection, viral NA activity

SMILES | EC50 ([1]; Influenza A virus, H3N2, MDCK, 48 h) [nM] | EC50 (A/H5N1/Duck_MN; Influenza A virus, H5N1, read-out: A/H5N1/Duck_MN) [nM] | EC50 (A/H5N1/Gull_PA; Influenza A virus, H5N1, read-out: A/H5N1/Gull_PA) [nM] | EC50 ([2]; Influenza A virus, H1N1, MDCK, 48 h) [nM] | EC50 (influenza A/WSN/33; Influenza A virus, MDCK, 48 h) [nM] | EC50 (A/H5N1/Duck_PA; Influenza A virus, H5N1, read-out: A/H5N1/Duck_PA) [nM] | EC50 [1, 3] [nM] | EC50 (A/H5N1/Duck_MN; read-out: A/H5N1/Duck_MN) [nM] | EC50 (A/H5N1/Gull_PA; read-out: A/H5N1/Gull_PA) [nM] | EC50 [2, 3] [nM] | EC50 (influenza A/WSN/33; [3]) [nM] | EC50 (A/H5N1/Duck_PA; read-out: A/H5N1/Duck_PA) [nM]
COc1ccccc1-c1noc(C)c1C(=O)N1CCN(c2cc(NC(=O)c3ccc(N(C)C)cc3)c([N+](=O)[O-])cc2Cl)CC1 [Example 14, N-(4-chloro-5-(4-(3-(2-methoxyphenyl)-5-methylisoxazole-4-carbonyl)piperazin-1-yl)-2-nitrophenyl)-4-(dimethylamino)benzamide] | < 100 | < 100 | < 100 | < 100 | < 100 | < 1000 | – | – | – | – | – | –
COc1ccccc1-c1nnn(C)c1C(=O)N1CCN(c2cc(NC(=O)c3ccc(N4CCOC4=O)cc3)c([N+](=O)[O-])cc2Cl)CC1 [Example 93] | – | – | – | – | – | – | < 1000 | < 1000 | < 100 | < 100 | < 100 | < 1000
COc1ccccc1-c1noc(C)c1C(=O)N1CCN(c2cc(NC(=O)c3nccs3)c([N+](=O)[O-])cc2Cl)CC1 [Example 5] | – | – | – | – | – | – | < 1000 | < 100 | < 100 | < 100 | < 100 | < 100
